# The source made the active and inactive calls.
# Key:
# [1] = biological target: Glyceraldehyde-3-phosphate dehydrogenase (Homo sapiens, UniProt P04406)
# [2] = biological target: T1, Alkaline phosphatase, tissue-nonspecific isozyme (Homo sapiens, UniProt P05186); test: potency against alkaline phosphatase TNAP – biochemical, luminescent, dose response, SAR follow-up (AID 1056)
# T1 sequence (P05186 whole entry): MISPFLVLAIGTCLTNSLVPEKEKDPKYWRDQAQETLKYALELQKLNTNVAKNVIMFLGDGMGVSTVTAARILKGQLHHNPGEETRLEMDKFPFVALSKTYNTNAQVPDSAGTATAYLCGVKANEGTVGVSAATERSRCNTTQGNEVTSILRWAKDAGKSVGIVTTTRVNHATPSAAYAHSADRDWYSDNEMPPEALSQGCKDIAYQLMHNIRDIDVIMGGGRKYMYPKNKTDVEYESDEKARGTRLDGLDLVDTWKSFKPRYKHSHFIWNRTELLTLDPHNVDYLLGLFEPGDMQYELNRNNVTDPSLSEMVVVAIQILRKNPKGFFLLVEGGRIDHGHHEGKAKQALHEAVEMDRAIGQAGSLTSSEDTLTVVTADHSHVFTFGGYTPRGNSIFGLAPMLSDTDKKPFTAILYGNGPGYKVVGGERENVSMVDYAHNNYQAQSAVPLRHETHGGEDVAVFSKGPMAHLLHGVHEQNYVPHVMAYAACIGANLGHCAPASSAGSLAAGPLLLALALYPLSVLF
# [3] = viability of uninfected HEp-2 cells – cell-based, HTS, cytotoxicity control for RSV inhibitor project, dose response (AID 2410); type: functional; conditions: human respiratory syncytial virus
# [4] = biological target: T2, Tyrosine-protein phosphatase non-receptor type 7 (Homo sapiens, UniProt P35236); type: functional
# T2 sequence (P35236 whole entry): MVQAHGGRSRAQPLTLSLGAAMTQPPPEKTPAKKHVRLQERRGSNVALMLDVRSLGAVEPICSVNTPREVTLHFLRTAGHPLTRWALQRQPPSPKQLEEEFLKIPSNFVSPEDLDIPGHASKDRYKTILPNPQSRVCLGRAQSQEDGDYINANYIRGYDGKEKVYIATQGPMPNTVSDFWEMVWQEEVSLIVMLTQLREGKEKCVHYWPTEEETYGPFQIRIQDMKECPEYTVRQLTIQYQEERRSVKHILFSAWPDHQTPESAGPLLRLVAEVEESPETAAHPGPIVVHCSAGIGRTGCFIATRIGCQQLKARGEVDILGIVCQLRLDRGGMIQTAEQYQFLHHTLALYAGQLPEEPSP
# [5] = biological target: T3, Tyrosine-protein phosphatase non-receptor type 22 (Homo sapiens, UniProt Q9Y2R2); type: functional
# T3 sequence (Q9Y2R2 whole entry): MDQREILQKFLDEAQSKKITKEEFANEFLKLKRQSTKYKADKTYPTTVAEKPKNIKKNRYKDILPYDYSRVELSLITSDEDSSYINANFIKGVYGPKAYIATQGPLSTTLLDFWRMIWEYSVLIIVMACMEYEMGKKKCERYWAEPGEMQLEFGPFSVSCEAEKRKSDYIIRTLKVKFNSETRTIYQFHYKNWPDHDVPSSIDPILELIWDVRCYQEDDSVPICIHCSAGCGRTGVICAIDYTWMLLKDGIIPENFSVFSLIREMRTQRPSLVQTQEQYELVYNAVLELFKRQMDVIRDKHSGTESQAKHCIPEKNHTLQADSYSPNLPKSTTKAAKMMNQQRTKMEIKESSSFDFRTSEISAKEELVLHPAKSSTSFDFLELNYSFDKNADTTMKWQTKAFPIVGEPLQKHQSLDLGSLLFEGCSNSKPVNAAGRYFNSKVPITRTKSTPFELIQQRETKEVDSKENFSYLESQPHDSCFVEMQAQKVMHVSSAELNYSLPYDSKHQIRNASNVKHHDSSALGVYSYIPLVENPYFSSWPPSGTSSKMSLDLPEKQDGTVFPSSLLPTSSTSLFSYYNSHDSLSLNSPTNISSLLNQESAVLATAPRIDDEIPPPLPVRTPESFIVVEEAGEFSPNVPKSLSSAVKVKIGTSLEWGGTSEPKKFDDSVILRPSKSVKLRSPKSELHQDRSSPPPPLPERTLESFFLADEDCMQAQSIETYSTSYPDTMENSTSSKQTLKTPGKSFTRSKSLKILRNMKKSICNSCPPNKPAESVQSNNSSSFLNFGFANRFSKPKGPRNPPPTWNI
# [6] = biological target: T3, Tyrosine-protein phosphatase non-receptor type 22; type: functional; remark: listed apart in the source
# Vero [7] = test: cells; type: functional, cell-based; conditions: Chlorocebus sabaeus
# Vero [8] = test: cells; type: functional; conditions: Chlorocebus sabaeus
# [9] = luciferase reporter signal suppression in cells – H4 neuroglioma cells, luminescence, dose response (AID 1990); type: functional, cell-based
# HEK293 [10] = test: inhibition of NOD1-driven NF-kB reporter – cell-based, luminescence, uHTS, primary screen (AID 1578); type: functional; conditions: Homo sapiens
# HEK293 [11] = test: cells; type: functional, cell-based; conditions: Homo sapiens
# [12] = Luminescence Cell-Based Dose Response HTS to Identify Inhibitors of 5'UTR Stem-Loop Driven Prion Protein mRNA Translation in H4 Neuroglioblastoma Cells. [Related pubchem assays: 1827 (Project Summary), 1813 (Primary HTS)]; type: functional
# [13] = alpha-synuclein stem-loop luciferase translation blockers – H4 neuroglioma cells, luminescence, confirmation (AID 1988); type: functional, cell-based
# HEK293 [14] = test: cells; type: functional, cell-based; conditions: Homo sapiens; remark: listed apart in the source
# HEK293 [15] = test: NOD2 signaling inhibitors in MDP-stimulated cells, cell-based, uHTS, luminescence (AID 2001); type: functional; conditions: Homo sapiens
# [16] = THP-1 cell cytotoxicity, dose response, cytotoxicity control for non-replicating M. tuberculosis project (AID 489025); type: functional
# [17] = HepG2 cell cytotoxicity, dose response, cytotoxicity control for non-replicating M. tuberculosis project (AID 489018); type: functional; conditions: Mycobacterium tuberculosis
# [18] = Vero E6 cell cytotoxicity, dose response, cytotoxicity control for non-replicating M. tuberculosis project, secondary assay (AID 492998); type: functional, VeroE6; conditions: Vero C1008
# cells = type: functional
# INS1 = test: INS-1E survival protection against cytokine death – cell-based, luminescence, retest, dose response (AID 449756); type: functional; conditions: Rattus norvegicus;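 note: cell death triggered by IL-1 beta plus TNF-alpha plus IFN-gamma mixture; protective hits raise ATP signal compared with cytokine alone wells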
# [19] = biological target: Voltage-dependent T-type calcium channel subunit alpha-1H (Homo sapiens, UniProt O95180); type: functional;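 note: channel activity triggered by adding a high calcium stimulation buffer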
# Chain of Voltage-dependent T-type calcium channel subunit alpha-1H (O95180 whole entry): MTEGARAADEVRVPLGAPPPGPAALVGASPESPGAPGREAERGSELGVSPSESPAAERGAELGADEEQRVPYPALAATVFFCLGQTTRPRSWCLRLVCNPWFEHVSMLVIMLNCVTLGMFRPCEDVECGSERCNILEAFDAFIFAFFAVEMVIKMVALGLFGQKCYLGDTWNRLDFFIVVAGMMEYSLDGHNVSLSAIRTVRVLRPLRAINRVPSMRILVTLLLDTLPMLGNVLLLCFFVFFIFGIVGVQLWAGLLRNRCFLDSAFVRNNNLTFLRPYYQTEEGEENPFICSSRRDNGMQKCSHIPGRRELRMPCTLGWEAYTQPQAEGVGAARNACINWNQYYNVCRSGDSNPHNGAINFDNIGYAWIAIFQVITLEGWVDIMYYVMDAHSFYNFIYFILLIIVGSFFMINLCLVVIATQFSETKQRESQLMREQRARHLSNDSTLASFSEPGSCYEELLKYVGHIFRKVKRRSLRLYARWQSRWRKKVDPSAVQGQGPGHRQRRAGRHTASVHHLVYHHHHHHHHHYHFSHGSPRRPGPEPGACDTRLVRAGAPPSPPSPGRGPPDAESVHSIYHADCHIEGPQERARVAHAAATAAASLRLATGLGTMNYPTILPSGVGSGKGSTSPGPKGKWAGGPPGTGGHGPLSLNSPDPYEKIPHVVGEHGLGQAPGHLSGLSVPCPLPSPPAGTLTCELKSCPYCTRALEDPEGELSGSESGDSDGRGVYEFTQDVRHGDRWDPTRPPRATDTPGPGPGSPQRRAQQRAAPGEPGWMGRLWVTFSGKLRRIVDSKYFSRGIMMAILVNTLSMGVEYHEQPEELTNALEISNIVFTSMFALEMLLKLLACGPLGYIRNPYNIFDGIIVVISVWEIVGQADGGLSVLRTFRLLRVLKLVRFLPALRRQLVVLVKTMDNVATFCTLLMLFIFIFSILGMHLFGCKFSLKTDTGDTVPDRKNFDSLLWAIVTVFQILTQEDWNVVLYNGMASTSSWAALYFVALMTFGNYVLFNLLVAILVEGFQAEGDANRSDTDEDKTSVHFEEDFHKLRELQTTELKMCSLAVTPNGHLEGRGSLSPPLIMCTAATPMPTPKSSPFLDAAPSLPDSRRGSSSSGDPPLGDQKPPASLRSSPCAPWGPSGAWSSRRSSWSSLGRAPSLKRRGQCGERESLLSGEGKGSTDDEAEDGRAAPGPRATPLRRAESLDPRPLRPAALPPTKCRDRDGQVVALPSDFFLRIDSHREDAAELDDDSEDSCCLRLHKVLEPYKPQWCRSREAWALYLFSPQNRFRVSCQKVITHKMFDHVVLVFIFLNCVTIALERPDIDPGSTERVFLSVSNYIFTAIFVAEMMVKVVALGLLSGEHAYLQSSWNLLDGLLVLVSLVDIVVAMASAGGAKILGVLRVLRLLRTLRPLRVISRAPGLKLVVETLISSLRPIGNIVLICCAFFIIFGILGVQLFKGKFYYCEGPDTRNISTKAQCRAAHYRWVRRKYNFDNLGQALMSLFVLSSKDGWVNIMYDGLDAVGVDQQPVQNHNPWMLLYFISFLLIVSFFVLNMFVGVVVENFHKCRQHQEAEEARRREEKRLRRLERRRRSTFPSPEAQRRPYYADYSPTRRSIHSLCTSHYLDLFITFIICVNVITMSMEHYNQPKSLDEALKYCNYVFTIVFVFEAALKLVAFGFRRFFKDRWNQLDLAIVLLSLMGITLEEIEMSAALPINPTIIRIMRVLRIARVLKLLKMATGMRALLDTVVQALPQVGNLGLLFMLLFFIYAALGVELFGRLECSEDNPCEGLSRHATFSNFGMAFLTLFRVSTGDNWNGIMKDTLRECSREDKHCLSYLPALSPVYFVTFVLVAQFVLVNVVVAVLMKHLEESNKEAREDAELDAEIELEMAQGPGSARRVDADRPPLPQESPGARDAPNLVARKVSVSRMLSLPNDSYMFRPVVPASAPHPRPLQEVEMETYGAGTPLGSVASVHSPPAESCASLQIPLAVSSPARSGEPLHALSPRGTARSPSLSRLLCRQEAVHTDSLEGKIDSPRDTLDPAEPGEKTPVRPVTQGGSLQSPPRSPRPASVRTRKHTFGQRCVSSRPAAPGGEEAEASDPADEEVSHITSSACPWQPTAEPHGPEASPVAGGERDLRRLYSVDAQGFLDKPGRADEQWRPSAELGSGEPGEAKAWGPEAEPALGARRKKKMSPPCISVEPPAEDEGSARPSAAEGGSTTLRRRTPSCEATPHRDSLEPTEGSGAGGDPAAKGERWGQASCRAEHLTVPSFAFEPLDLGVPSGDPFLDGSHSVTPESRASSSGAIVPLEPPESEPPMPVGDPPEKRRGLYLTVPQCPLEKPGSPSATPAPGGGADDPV
# [20] = biological target: T4, Calpain-2 catalytic subunit (Sus scrofa, UniProt P43367); test: m-calpain protease blockers, concentration series – biochemical, fluorogenic peptide substrate, dose response (AID 1420); type: functional
# T4 sequence (P43367 whole entry): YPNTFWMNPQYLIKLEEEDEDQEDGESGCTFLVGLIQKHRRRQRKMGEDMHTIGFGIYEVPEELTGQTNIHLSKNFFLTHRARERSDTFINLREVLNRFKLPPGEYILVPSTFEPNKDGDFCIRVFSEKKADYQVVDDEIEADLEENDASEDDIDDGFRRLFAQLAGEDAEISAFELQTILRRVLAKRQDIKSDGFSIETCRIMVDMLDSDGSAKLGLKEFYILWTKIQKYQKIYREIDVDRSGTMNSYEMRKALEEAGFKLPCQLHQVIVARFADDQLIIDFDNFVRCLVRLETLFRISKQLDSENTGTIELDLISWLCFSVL
# [21] = biological target: Eukaryotic translation initiation factor 4E (Mus musculus, UniProt P63073); test: blockers of eIF4G binding by eIF4E – biochemical, TR-FRET, dose response (AID 855); type: functional;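 note: potency for disrupting eIF4E binding to eIF4GI seen as loss of FRET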
# Chain of Eukaryotic translation initiation factor 4E (P63073 whole entry): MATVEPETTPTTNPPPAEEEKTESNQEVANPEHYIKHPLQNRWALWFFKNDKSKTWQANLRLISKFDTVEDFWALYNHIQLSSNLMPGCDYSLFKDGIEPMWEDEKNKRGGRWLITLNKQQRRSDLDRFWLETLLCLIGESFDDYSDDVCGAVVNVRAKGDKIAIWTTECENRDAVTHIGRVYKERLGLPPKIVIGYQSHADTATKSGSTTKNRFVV
# [22] = biological target: T5, Replicative DNA helicase DnaB (Mycobacterium tuberculosis, UniProt P9WMR3); test: DnaB intein splicing inhibitors, dose response, biochemical, cell-free fluorescence (AID 449749); type: functional
# T5 sequence (P9WMR3 whole entry): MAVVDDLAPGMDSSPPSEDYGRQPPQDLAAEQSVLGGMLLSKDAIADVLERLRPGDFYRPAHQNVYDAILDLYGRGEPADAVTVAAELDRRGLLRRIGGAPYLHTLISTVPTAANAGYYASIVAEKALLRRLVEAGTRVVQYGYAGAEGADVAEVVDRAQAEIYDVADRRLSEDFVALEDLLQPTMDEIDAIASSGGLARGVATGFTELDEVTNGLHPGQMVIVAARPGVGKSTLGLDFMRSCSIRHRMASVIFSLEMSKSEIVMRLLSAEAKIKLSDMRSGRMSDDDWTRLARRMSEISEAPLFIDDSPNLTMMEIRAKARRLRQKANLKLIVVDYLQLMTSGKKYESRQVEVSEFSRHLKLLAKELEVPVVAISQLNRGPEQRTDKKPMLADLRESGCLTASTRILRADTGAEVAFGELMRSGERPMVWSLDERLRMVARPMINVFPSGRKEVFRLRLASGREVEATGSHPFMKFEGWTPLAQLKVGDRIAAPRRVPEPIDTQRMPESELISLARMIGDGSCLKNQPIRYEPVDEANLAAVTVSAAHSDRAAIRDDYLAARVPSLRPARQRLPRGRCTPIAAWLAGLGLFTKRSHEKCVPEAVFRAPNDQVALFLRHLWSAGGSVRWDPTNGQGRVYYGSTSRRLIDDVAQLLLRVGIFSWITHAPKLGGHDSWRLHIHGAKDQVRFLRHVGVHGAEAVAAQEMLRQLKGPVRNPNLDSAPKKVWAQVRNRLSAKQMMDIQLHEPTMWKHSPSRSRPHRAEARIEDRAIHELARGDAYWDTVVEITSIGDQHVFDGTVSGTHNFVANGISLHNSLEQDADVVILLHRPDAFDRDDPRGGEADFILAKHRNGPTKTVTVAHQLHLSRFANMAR
# Protein RecA = biological target: T6, Protein RecA (Mycobacterium tuberculosis, UniProt P9WHJ3); test: Fluorescence Cell-Free Homogeneous Dose Retest to Identify Inhibitors of RecA-Intein Splicing Activity. [Related pubchem assays (depositor defined):AID2097, AID2223, AID489010, AID492950]; type: functional
# T6 sequence (P9WHJ3 whole entry): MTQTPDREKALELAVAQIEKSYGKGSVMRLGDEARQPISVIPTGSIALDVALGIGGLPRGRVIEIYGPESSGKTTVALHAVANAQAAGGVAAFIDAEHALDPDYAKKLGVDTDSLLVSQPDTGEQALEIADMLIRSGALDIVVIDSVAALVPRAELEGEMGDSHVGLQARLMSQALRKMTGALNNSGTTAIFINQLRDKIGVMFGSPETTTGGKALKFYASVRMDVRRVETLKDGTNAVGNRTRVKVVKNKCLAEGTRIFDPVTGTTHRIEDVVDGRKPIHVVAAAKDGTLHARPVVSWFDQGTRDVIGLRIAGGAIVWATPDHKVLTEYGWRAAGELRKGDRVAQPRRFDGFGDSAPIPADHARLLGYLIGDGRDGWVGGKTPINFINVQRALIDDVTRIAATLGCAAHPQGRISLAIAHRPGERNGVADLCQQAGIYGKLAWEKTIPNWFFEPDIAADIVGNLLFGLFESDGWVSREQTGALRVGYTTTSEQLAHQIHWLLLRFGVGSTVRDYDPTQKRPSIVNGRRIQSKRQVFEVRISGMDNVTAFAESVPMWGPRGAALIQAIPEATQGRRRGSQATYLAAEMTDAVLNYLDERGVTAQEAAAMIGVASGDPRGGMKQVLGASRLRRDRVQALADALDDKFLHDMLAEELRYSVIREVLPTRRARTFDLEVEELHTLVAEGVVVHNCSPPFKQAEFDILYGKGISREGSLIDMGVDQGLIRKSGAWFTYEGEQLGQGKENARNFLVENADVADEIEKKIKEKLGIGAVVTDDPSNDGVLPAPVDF
# Chain of Glyceraldehyde-3-phosphate dehydrogenase (P04406 whole entry): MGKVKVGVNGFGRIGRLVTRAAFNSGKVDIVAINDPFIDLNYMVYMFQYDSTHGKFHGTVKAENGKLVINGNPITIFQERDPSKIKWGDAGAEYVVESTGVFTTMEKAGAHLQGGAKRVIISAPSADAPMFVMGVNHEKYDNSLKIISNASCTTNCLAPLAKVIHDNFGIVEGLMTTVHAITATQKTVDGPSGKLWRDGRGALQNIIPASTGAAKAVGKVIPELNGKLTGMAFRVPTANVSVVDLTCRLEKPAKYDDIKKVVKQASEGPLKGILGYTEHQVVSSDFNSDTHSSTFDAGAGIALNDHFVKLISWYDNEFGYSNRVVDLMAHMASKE
structure (smiles),measurement,setting,value
COC(=O)c1cc(-c2cc(F)c(F)cc2F)n[nH]1,IC50,[1],> 10 µM (inconclusive)
same,IC50,[2],1.07 µM (active)
CCOc1ccccc1-c1cc(C(=O)N/N=C/c2ccc(O)c(OC)c2)c2ccccc2n1,CC50,[3],26.7 µM (active)
same,IC50,[4],> 79.4 µM (inactive)
same,IC50,[5],> 79.4 µM (inactive)
same,IC50,[6],> 79.4 µM (inactive)
same,IC50,Vero [7],> 25 µM (active)
same,CC50,Vero [8],> 25 µM (active)
O=C(N/N=C/c1cc(Br)c(Br)s1)c1ccncc1,EC50,[9],> 120 µM (not active)
same,EC50,HEK293 [10],> 20 µM (inactive)
same,IC50,HEK293 [11],2.13 µM (active)
same,EC50,[12],16.8 µM (active)
same,EC50,[13],9.58 µM (active)
same,IC50,HEK293 [14],> 20 µM (inactive)
same,IC50,HEK293 [15],17.9 µM (inactive)
same,CC50,[16],6.79 µM (active)
same,CC50,[17],16.7 µM (active)
same,CC50,[18],7.99 µM (active)
same,IC50,cells,2.64 µM (active)
same,AC50,INS1,3.31 µM (active)
COc1ccccc1N1CCN(C(=O)C2CCN(C(=O)c3ccccc3Cl)CC2)CC1,IC50,[4],> 79.4 µM (inactive)
same,IC50,[5],> 79.4 µM (inactive)
same,IC50,[6],> 79.4 µM (inactive)
CCCCOc1ccc(-c2cc(C(=O)OC)[nH]n2)cc1,IC50,[1],> 100 µM (not active)
same,IC50,[2],0.912 µM (active)
O=C(Nc1nc(-c2cccs2)cs1)c1cccc(S(=O)(=O)N2CCCCC2)c1,EC50,[19],4.13 µM (active)
O=C(CCCOc1ccccc1)N1CCN(c2ccccc2)CC1,EC50,[19],13.9 µM (active)
Fc1c(F)c(C(F)(F)F)c(F)c(F)c1N1CCN(c2ccc3nnc(C(F)(F)F)n3n2)CC1,IC50,[20],3.07 µM (not active)
same,IC50,[21],> 64 µM (inactive)
Cn1cnc([N+](=O)[O-])c1S(=O)(=O)c1cccc(Cl)c1,CC50,[16],15.5 µM (active)
same,CC50,[17],13 µM (active)
same,CC50,[18],8.33 µM (active)
same,IC50,cells,5.88 µM (active)
same,AC50,[22],27.7 µM (active)
same,EC50,Protein RecA,15.8 µM (active)
CC(C)CCNC(=O)c1ccc2c(Cl)c3c(nc2c1)CCC3,IC50,[4],> 79.4 µM (inactive)
same,IC50,[5],> 79.4 µM (inactive)
same,IC50,[6],> 79.4 µM (inactive)
Cc1ccc(N2C(=O)c3ccccc3C2(O)c2ncc[nH]2)cc1 (centres undefined),IC50,[21],> 64 µM (inactive)
CCCCCCCCCC(=O)N/N=C/c1ccc(C)s1,IC50,[21],> 64 µM (inactive)
O=C(Cc1cccs1)N1CCN(c2ccc([N+](=O)[O-])cc2)CC1,IC50,[4],> 79.4 µM (inactive)
same,IC50,[5],> 79.4 µM (inactive)
same,IC50,[6],> 79.4 µM (inactive)
CCn1c(CSc2nc3ccccc3s2)nc2ccccc21,EC50,[19],5.73 µM (active)

# Reference: ChEMBL document CHEMBL1201862, “PubChem BioAssay data set” (2004)
